Data from article PMC4503722, “Novel Phenotypic Outcomes Identified for a Public Collection of Approved Drugs from a Publicly Accessible Panel of Assays” (PLoS ONE, 2015).
Read-outs that look alike come from different tables or passages of the source.

Experiments:
[1] = tested on: NCI-H716 cells; assay: cells; assay type: cell-based, Human
[2] = tested on: STC-1 cell line; assay type: cell-based, mouse
[3] = tested on: endothelial tube formation in co-cultures of ECFCs and ADSCs treated with VEGF; assay: cells; assay type: cell-based, human
[4] = tested on: nuclear β-catenin in C2C12 cells; assay: cells; assay type: cell-based
[5] = tested on: INS-1E cells; assay: cells; assay type: cell-based, rat
[6] = tested on: HeLa cells; assay: cells; assay type: cell-based; conditions: read-out: CellCycle G2/M
[7] = tested on: DLD-1; assay: cells; assay type: cell-based
[8] = tested on: SW480; assay: cells; assay type: cell-based
[9] = tested on: HCT116; assay: cells; assay type: cell-based
[10] = tested on: HCT116 cells treated with a GSK3β inhibitor; assay: cells; assay type: cell-based
[11] = tested on: Colo320; assay: cells; assay type: cell-based
[12] = tested on: HT-29; assay: cells; assay type: cell-based
[13] = tested on: RKO; assay: cells; assay type: cell-based
[14] = tested on: SNU-C1; assay: cells; assay type: cell-based
[15] = biological target: T1, hp70S6K1 (RPS6KB1) (Homo sapiens, UniProt P23443); assay: Cerep LANCE kinase assay hp70S6K1 (S1 assay 31); assay type: biochemical; conditions: read-out: p70S6K1
T1 construct: purchased Cerep (LANCE kinase assay platform, contract assay)
T1 sequence (P23443 whole entry): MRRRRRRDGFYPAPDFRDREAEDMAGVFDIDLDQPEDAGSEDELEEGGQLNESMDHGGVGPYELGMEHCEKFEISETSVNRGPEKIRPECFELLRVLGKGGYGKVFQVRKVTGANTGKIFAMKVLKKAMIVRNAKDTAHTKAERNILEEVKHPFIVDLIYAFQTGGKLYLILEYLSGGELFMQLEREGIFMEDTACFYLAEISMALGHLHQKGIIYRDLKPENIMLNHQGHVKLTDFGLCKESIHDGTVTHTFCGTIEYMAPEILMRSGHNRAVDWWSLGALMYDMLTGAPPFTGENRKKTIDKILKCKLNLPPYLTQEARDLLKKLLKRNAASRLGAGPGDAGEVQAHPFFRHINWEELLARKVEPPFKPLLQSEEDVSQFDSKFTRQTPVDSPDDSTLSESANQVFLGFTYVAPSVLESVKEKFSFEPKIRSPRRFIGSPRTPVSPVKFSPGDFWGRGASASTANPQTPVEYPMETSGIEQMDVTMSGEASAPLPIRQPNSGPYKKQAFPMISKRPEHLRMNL

[16] = biological target: T2, hKDR (Homo sapiens, UniProt P35968); assay: Cerep LANCE kinase assay hKDR (S1 assay 32); assay type: biochemical; conditions: read-out: KDR
T2 construct: purchased Cerep (LANCE kinase assay platform, contract assay)
T2 sequence (P35968 20-1356): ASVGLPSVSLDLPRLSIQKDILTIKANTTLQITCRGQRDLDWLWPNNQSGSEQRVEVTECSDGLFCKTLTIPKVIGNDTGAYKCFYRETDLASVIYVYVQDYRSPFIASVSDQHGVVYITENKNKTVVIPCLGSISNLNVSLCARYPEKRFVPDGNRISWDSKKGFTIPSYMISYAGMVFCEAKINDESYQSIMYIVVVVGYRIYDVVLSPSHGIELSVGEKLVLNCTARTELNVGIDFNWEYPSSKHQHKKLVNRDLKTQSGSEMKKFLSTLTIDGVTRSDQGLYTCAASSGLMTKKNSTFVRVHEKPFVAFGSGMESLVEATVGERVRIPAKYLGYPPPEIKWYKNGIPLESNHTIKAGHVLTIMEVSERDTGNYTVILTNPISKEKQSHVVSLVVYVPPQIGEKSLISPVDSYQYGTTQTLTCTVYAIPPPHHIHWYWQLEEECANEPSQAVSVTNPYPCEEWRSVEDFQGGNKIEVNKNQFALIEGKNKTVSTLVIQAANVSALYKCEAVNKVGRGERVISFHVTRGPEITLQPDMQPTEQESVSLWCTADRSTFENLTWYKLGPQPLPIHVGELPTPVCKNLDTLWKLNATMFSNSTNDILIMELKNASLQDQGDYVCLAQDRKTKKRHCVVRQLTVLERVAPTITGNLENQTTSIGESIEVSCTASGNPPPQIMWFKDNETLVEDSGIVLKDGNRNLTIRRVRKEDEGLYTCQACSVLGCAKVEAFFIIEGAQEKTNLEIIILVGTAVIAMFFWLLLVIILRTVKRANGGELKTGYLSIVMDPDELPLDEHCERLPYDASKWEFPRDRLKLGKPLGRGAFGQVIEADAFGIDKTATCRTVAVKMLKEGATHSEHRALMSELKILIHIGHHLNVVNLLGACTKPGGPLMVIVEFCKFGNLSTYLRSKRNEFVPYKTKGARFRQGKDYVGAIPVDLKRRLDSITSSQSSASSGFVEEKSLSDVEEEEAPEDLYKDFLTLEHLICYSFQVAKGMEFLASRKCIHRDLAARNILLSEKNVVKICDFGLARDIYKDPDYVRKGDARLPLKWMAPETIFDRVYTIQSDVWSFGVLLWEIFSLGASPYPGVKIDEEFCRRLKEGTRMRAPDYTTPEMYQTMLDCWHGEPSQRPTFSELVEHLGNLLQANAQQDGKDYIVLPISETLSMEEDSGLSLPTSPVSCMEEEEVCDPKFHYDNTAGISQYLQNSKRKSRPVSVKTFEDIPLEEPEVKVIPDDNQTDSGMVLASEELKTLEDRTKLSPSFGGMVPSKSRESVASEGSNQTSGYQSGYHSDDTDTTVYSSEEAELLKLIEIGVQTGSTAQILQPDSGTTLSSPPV

[17] = biological target: T3, hJAK2 (Homo sapiens, UniProt O60674); assay: Cerep LANCE kinase assay hJAK2 (S1 assay 33); assay type: biochemical; conditions: read-out: JAK2
T3 construct: purchased Cerep (LANCE kinase assay platform, contract assay)
T3 sequence (O60674 whole entry): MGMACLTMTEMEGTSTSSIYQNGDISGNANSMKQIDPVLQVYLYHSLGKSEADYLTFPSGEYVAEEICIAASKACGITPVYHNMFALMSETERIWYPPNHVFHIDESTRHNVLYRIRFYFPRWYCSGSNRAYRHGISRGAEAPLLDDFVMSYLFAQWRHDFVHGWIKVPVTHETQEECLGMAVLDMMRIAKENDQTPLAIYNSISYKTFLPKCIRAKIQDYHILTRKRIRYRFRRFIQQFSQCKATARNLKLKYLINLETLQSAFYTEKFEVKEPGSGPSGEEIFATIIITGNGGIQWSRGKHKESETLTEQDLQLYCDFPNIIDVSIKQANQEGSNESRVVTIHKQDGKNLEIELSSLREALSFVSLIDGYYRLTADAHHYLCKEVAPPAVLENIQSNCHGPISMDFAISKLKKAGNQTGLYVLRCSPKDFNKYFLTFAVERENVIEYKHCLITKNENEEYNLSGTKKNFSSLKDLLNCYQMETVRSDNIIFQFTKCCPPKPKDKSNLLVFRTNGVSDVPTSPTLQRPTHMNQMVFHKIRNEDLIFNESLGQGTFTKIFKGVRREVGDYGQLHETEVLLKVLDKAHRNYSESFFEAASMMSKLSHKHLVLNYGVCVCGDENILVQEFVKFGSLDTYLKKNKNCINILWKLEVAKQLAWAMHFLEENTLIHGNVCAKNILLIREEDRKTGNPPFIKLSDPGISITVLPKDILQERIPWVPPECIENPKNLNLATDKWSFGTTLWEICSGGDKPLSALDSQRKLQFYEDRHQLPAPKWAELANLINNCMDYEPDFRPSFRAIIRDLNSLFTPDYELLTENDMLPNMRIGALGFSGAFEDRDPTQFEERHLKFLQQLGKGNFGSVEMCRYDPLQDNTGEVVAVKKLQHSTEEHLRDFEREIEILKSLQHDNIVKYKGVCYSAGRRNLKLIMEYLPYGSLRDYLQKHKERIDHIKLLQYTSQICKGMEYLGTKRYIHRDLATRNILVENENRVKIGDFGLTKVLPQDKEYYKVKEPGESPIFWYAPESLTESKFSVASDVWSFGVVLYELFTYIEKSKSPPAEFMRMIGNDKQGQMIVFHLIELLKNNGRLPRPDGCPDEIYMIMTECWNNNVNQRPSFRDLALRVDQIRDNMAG

[18] = biological target: T4, hGSK3b (Homo sapiens, UniProt P49841); assay: Cerep LANCE kinase assay hGSK3b (S1 assay 34); assay type: biochemical; conditions: read-out: GSK3b
T4 construct: purchased Cerep (LANCE kinase assay platform, contract assay)
T4 sequence (P49841 whole entry): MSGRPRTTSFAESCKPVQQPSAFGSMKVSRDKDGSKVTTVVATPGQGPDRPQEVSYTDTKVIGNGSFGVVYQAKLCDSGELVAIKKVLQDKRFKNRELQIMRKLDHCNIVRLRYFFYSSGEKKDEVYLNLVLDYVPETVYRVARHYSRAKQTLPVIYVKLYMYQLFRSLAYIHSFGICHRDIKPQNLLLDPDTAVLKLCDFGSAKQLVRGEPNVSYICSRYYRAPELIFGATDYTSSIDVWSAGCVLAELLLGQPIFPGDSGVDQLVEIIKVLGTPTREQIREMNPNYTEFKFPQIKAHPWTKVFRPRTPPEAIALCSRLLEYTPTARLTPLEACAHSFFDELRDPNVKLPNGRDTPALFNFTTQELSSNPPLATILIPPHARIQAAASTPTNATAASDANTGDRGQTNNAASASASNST

[19] = biological target: T5, hFLT3 (Homo sapiens, UniProt P36888); assay: Cerep LANCE kinase assay hFLT3 (S1 assay 35); assay type: biochemical; conditions: read-out: FLT3
T5 construct: purchased Cerep (LANCE kinase assay platform, contract assay)
T5 sequence (P36888 27-993): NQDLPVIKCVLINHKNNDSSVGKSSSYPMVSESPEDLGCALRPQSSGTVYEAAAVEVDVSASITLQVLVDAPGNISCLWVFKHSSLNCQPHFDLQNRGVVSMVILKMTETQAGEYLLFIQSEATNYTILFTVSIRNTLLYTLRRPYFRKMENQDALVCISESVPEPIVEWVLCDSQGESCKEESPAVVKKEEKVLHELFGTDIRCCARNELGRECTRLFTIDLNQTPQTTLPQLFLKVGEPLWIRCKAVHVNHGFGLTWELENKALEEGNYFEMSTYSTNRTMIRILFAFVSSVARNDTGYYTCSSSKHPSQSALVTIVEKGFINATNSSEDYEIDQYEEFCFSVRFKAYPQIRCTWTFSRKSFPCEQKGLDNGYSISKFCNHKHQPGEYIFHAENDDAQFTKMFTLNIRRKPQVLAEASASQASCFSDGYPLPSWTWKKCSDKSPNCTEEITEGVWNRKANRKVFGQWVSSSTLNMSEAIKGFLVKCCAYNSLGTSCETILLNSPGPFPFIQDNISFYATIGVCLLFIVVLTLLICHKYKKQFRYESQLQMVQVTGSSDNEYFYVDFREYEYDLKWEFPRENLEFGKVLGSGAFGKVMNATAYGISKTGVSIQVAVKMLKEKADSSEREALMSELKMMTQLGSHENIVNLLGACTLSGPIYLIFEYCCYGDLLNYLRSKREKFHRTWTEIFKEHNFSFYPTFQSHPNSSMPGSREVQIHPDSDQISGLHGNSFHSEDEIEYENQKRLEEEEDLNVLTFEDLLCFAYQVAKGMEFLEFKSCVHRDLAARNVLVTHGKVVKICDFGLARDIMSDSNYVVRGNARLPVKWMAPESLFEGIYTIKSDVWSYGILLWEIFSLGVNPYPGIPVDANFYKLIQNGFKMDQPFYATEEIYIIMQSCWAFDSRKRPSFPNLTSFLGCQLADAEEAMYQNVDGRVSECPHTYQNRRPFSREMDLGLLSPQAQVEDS

[20] = Homo sapiens, read-out: Anti-Angiogenesis
[21] = Mus musculus, C2C12, read-out: Wnt Pathway
[22] = Rattus norvegicus, INS-1E, read-out: Insulin Secretion
[23] = Homo sapiens, NCI-H716, read-out: GLP 1 Secretion
[24] = Homo sapiens, DLD-1, read-out: Basal_Viability ATP DLD-1
[25] = Homo sapiens, SW480, read-out: Basal_Viability ATP SW480
[26] = Homo sapiens, HCT-116, read-out: Basal_Viability ATP HCT116
[27] = Homo sapiens, HCT-116, read-out: GSK3b inh pretreated_Viability ATP HCT116
[28] = Homo sapiens, COLO 320, read-out: Basal_Viability ATP Colo 320
[29] = Homo sapiens, HT-29, read-out: Basal_Viability ATP HT-29
[30] = Homo sapiens, RKO, read-out: Basal_Viability ATP RKO
[31] = Homo sapiens, SNU-C1, read-out: Basal_Viability ATP SNU-C1

Molecule	hNCI-H716 GLP1 Secretion IC50/EC50 ([1]; assay number 12)	mSTC-1 GLP1 Secretion IC50/EC50 ([2]; assay number 13)	EC50 [4, 21]	EC50 ([6]; Homo sapiens, HeLa)	IC50 [7, 24]	IC50 [8, 25]	IC50 [9, 26]	IC50 [10, 27]	IC50 [11, 28]	IC50 [12, 29]	IC50 [13, 30]	IC50 [14, 31]	other results
COc1cc(Nc2c(C#N)cnc3cc(OCCCN4CCN(C)CC4)c(OC)cc23)c(Cl)cc1Cl [NCGC00241107-02]	25.1177 µM	> 40 µM											
C#C[C@]1(O)CC[C@H]2[C@@H]3CCC4=CCCC[C@@H]4[C@H]3CC[C@@]21C [NCGC00179676-03]	27.5211 µM	> 40 µM											
C=Cc1c(C)c2cc3[nH]c(cc4nc(cc5nc(cc1[nH]2)C(C)=C5CCC(=O)O)C(CCC(=O)O)=C4C)c(C)c3C=C [NCGC00015844-10]	19.5523 µM	> 40 µM											
O=C1OC2(c3ccccc31)c1cc(I)c(O)c(I)c1Oc1c2cc(I)c(O)c1I [NCGC00166249-03]	> 40 µM	2.9301 µM											
O=c1oc2ccccc2c(O)c1C(CC(O)c1ccc(-c2ccc(Br)cc2)cc1)c1ccccc1 (stereo not shown) [NCGC00163939-02]													hNCI-H716 GLP1 Secretion IC50/EC50 [1]: > 40 µM; mSTC-1 GLP1 Secretion IC50/EC50 [2]: 9.1609 µM
O=C(O)c1cc(N=Nc2ccc([O-])c(C(=O)O)c2)ccc1[O-].[Na+].[Na+] [NCGC00181008-02]	> 40 µM	9.5352 µM											
CCCCCCCCCCCCOCCOCCOCCOCCOCCOCCOCCOCCOCCO [NCGC00166290-03]	> 40 µM	30.3683 µM											
propagermanium [reference compound]													activity in NCI-H716 GLP-1 secretion assay (in words) [1]: potent actives; activity in STC-1 GLP-1 secretion assay (in words) [2]: potent actives
Nc1ccc(Cl)cc1C(=O)c1ccccc1F [NCGC00253725-01]	> 40 µM	> 40 µM											
NC[C@@H]1O[C@H](O[C@H]2[C@@H](O)[C@H](O[C@@H]3[C@@H](O)[C@H](N)C[C@H](N)[C@H]3O[C@H]3O[C@H](CN)[C@@H](O)[C@H](O)[C@H]3N)O[C@@H]2CO)[C@H](N)[C@@H](O)[C@@H]1O [NCGC00179612-03]													IC50/EC50, hNCI-H716 GLP1 Secretion (assay number 12) ([1]; concentration response): > 40 µM; IC50/EC50, mSTC-1 GLP1 Secretion (assay number 13) ([2]; concentration response): > 40 µM
CC1=C(C(=O)O)N2C(=O)[C@@H](NC(=O)[C@H](N)c3ccccc3)[C@H]2SC1 [NCGC00159522-05]	> 40 µM	> 40 µM											
CCCCCCCCCCCCCCCCCCOCC(O)CO (stereo not shown) [NCGC00095748-04]	> 40 µM	> 40 µM											
O=C(Nc1cccc2c(=O)cc(-c3nn[nH]n3)oc12)c1ccc(OCCCCc2ccccc2)cc1 [NCGC00181765-01]	> 40 µM	> 40 µM											
CC(=O)NO [NCGC00094576-05]	> 40 µM	> 40 µM											
Cc1cc(O)c2c3c4c(cc(O)c13)C(C)(C)C(=O)c1c(O)cc(O)c(c1-4)C2=O [Heliomycin]			1.07 µM	> 10 µM	0.0709 µM	0.058 µM	0.0775 µM	0.0573 µM	0.082 µM	3.01 µM	0.0754 µM	0.332 µM	IC50 [3, 20]: 0.101 µM; EC50 [5, 22]: > 10 µM; EC50 [1, 23]: > 10 µM; IC50 ([15]; kinase assay): > 20 µM; IC50 ([16]; kinase assay): > 20 µM; IC50 ([17]; kinase assay): > 20 µM; IC50 ([18]; kinase assay): 6.9 µM; IC50 ([19]; kinase assay): 1.97 µM
O=C1c2c(O)ccc(O)c2C(=O)c2c(NCCNCCO)ccc(NCCNCCO)c21 [mitoxantrone]			0.0303 µM	> 10 µM	1.6 µM	1.83 µM	1.23 µM	0.001 µM	7.41 µM	7.59 µM	1.03 µM	1.72 µM	IC50 [3, 20]: 0.0044 µM; EC50 [5, 22]: > 10 µM; EC50 [1, 23]: > 10 µM; IC50 ([15]; kinase assay): > 20 µM; IC50 ([16]; kinase assay): > 20 µM; IC50 ([17]; kinase assay): > 20 µM; IC50 ([18]; kinase assay): > 20 µM; IC50 ([19]; kinase assay): > 20 µM
CC(=O)Oc1ccc(C2(c3ccc(OC(C)=O)cc3)Oc3ccccc3NC2=O)cc1 [Bisoxatin diacetate]													IC50 ([3]; read-out: Anti-Angiogenesis): 2.27 µM; EC50 ([4]; read-out: Wnt Pathway): 14 µM; EC50 ([5]; read-out: Insulin Secretion): > 20 µM; EC50 ([1]; read-out: GLP 1 Secretion): > 10 µM; EC50 [6]: > 10 µM; IC50 ([7]; read-out: Basal_Viability ATP DLD-1): 19.7 µM; IC50 ([8]; read-out: Basal_Viability ATP SW480): 9.19 µM; IC50 ([9]; read-out: Basal_Viability ATP HCT116): 2.42 µM; IC50 ([10]; read-out: GSK3b inh pretreated_Viability ATP HCT116): 3.26 µM; IC50 ([11]; read-out: Basal_Viability ATP Colo 320): > 20 µM; IC50 ([12]; read-out: Basal_Viability ATP HT-29): > 20 µM; IC50 ([13]; read-out: Basal_Viability ATP RKO): 9.23 µM; IC50 ([14]; read-out: Basal_Viability ATP SNU-C1): > 20 µM; IC50 [15]: > 20 µM; IC50 [16]: > 20 µM; IC50 [17]: > 20 µM; IC50 [18]: > 20 µM; IC50 [19]: > 20 µM
COc1ccc(-c2ccc3cc(C(=O)O)ccc3c2)cc1C12CC3CC(CC(C3)C1)C2 [Adapalene]			> 10 µM	> 10 µM	0.597 µM	0.405 µM	0.59 µM	0.945 µM	0.787 µM	1.12 µM	0.444 µM	1.78 µM	IC50 [3, 20]: 0.524 µM; EC50 [5, 22]: > 10 µM; EC50 [1, 23]: > 10 µM; IC50 ([15]; kinase assay): > 20 µM; IC50 ([16]; kinase assay): 7.1 µM; IC50 ([17]; kinase assay): 5.57 µM; IC50 ([18]; kinase assay): 7.25 µM; IC50 ([19]; kinase assay): > 20 µM
Cc1cc(C2CCCCC2)n(O)c(=O)c1 [ciclopirox]			1.05 µM	> 10 µM	0.316 µM	0.469 µM	0.656 µM	0.39 µM	0.208 µM	7.04 µM	0.233 µM	> 20 µM	IC50 [3, 20]: > 10 µM; EC50 [5, 22]: > 10 µM; EC50 [1, 23]: > 10 µM; IC50 ([15]; kinase assay): > 20 µM; IC50 ([16]; kinase assay): > 20 µM; IC50 ([17]; kinase assay): > 20 µM; IC50 ([18]; kinase assay): > 20 µM; IC50 ([19]; kinase assay): > 20 µM
Cc1nc(N)nc(N)c1-c1ccc(Cl)c(Cl)c1 [metoprine, reference compound]			0.0299 µM	> 10 µM	0.634 µM	0.512 µM	0.413 µM	0.0589 µM	2.03 µM	0.932 µM	0.117 µM	2.16 µM	IC50 ([3]; Homo sapiens, read-out: Anti-Angio IC50): > 10 µM; EC50 ([4]; Mus musculus, C2C12, read-out: Wnt pot. EC50): 0.03 µM; EC50 ([5]; Rattus norvegicus, INS-1E, read-out: Ins. sec. EC50): > 10 µM; EC50 ([1]; Homo sapiens, NCI-H716, read-out: GLP1 sec. EC50): > 10 µM; IC50 ([7]; Homo sapiens, DLD-1, 72 h, read-out: DLD-1 viab. IC50): 0.63 µM; IC50 ([8]; Homo sapiens, SW480, 72 h, read-out: SW480 viab. IC50): 0.51 µM; IC50 ([9]; Homo sapiens, HCT-116, 72 h, read-out: HCT-116 viab. IC50): 0.41 µM; IC50 ([10]; Homo sapiens, HCT-116, 72 h, read-out: HCT-116 (GSK3β) viab. IC50): 0.059 µM; IC50 ([11]; Homo sapiens, COLO 320, 72 h, read-out: Colo320 viab. IC50): 2 µM; IC50 ([12]; Homo sapiens, HT-29, 72 h, read-out: HT-29 viab. IC50): 0.93 µM; IC50 ([13]; Homo sapiens, RKO, 72 h, read-out: RKO viab. IC50): 0.12 µM; IC50 ([14]; Homo sapiens, SNU-C1, 72 h, read-out: SNU-C1 viab. IC50): 2.2 µM; IC50 ([15]; kinase assay): > 20 µM; IC50 ([16]; kinase assay): > 20 µM; IC50 ([17]; kinase assay): > 20 µM; IC50 ([18]; kinase assay): > 20 µM; IC50 ([19]; kinase assay): > 20 µM
CCCSc1ccc2nc(NC(=O)OC)[nH]c2c1 [Albendazole]			1.28 µM	0.0612 µM	0.108 µM	> 20 µM	0.0852 µM	0.154 µM	0.502 µM	> 20 µM	0.165 µM	> 20 µM	IC50 [3, 20]: 0.355 µM; EC50 [5, 22]: > 10 µM; EC50 [1, 23]: > 10 µM; IC50 [15]: > 20 µM; IC50 [16]: > 20 µM; IC50 [17]: > 20 µM; IC50 [18]: > 20 µM; IC50 [19]: > 20 µM
Sc1ncnc2nc[nH]c12 [Mercaptopurine]			> 10 µM	> 10 µM	0.26 µM	1.04 µM	0.259 µM	1.42 µM	1.3 µM	0.635 µM	0.659 µM	> 20 µM	IC50 [3, 20]: 0.915 µM; EC50 [5, 22]: > 10 µM; EC50 [1, 23]: > 10 µM; IC50 ([15]; kinase assay): > 20 µM; IC50 ([16]; kinase assay): > 20 µM; IC50 ([17]; kinase assay): > 20 µM; IC50 ([18]; kinase assay): > 20 µM; IC50 ([19]; kinase assay): > 20 µM
